The target in one experiment is T1, full-length human GHR (Homo sapiens, UniProt P10912).
T1 construct: plasmid DNA encoding the full-length human GHR; expressed in transfected cells; host or cells: WRL-68 cells
T1 sequence (P10912 19-638): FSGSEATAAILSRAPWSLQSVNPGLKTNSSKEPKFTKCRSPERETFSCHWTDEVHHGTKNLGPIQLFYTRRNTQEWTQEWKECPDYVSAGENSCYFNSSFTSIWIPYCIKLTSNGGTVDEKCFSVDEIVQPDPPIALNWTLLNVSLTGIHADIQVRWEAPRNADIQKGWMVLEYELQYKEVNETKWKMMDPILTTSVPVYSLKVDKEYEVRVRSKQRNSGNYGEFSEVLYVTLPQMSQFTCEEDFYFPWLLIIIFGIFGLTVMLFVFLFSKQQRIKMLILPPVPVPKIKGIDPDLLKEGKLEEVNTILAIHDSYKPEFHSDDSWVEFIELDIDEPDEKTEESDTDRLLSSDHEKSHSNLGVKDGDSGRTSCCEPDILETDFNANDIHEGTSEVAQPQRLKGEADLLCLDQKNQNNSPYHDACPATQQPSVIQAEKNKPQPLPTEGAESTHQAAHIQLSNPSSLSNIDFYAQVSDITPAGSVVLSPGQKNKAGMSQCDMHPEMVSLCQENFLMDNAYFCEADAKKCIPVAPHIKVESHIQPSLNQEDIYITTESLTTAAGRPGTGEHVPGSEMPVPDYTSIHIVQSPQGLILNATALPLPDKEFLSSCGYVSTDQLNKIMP
In words: Immunofluorescence of subcellular distribution and internalization of growth hormone receptor. Format: cell-based. Conditions: WRL-68 cells transfected with human GHR; immunofluorescence using Mab263; 10-100 nM GH or 2 μM BVT.3693.

The target of experiment [1] is T2, membrane bound GHR on a human osteosarcoma cell line (Homo sapiens, UniProt P10912).
T2 construct: endogenous in cells
T2 sequence (P10912 19-638): T1 sequence (P10912 19-638)
The experiment is described as follows: DELFIA assay for determination of receptor on cell surface. The conditions noted are these: stimulated for 1.5 hours with increasing concentrations, Eu-labeled anti GH-rec antibody BB117, FIG. 2. The class given is cell-based. The method, then:
The following method was used to quantify the number of GH receptors on the cell surface after stimulation with different compounds.
On day 1, WRL-68 cells were seeded at a density of 15,000 cells per well and incubated under standard cell culture conditions.
On day 3, cells were washed with serum-free medium and incubated 1 hour prior to stimulation with a dose-response of BVT.3693. The cells were then washed with ice-cold PBS (Dulbecco PBS-A) and fixated with 4% paraformaldehyde on ice for 20 minutes. Thereafter the plates were washed with PBS and stored in a refrigerator until used. […]
On day 4, the plates were washed with PBS using a DELFIA plate washer. […] The amount of Europium fluorescence was determined by reading in a Victor analysis instrument.
To correlate the amount of Europium fluorescence measured (which fluorescence is proportional to the number of GH receptors present on the cell surface) to the number of cells attached to the bottom of the well after all the washing steps, we developed an internal standard. […] Instead, we developed a method to quantify the amount of DNA in the wells as an internal standard. […]
10,000 cells per well were seeded the day before stimulation. […] Receptor quantification was performed using an Eu-labeled anti GH-rec antibody BB117, as described above (simplified protocol).

Procedure for full-length human GHR: WRL-68 cells were cultured in EMEM medium with NaHCO3 (Statens Veterinärmedicinska Anstalt, Uppsala, Sweden), supplemented with 10% fetal bovine serum (FBS), 2% L-Glutamine, 1% Pyruvate, and non-essential acids (NEA), all from GIBCO, at 37° C. in 5% CO2.
Transfection: Cells were transfected with plasmid DNA encoding the full-length human GHR (pMB 1288, 2 μg/μl) using DOTAP Liposomal Transfection Reagent (Roche), according to the manufacturers instructions. WRL-68 cells in T75 flasks were transfected with 10 μg DNA for each flask. 5 μl (10 μg) DNA was diluted with 250 μl OPTIMEM1 medium (GIBCO), and mixed with 75 μl DOTAP reagent diluted in 175 μl OPTIMEM1 medium. The mixture was incubated for 10 minutes and then mixed with 10 ml OPTIMEM1 medium. Cells were washed once and then incubated for 4 hours with the DNA/DOTAP transfection mix. The transfection reagents were removed and fresh culture medium was added. Cells were re-seeded into new culture dishes the following day.
Stimulation: 3×10^4 cells were seeded on chamber slides in eight-well dishes and grown for two days. […] After treatment, the cells were rinsed twice with ice-cold PBS. Fixation was performed with 4% paraformaldehyde for 20 minutes.
Staining with rabbit antiserum: The chamber slides were washed twice by immersion of the slides in a container with 0.05% TBS-Tween. […]

As for `Cc1ccc(S(N)(=O)=O)cc1NC(=O)c1ccc(Br)o1` [BVT.3693, N-[5-(aminosulfonyl)-2-methylphenyl]-5-bromo-2-furamide], the “subcellular distribution of GHR after stimulation” value at full-length human GHR is “intracellular staining, with both a nuclear localisation and a cytoplasmic localisation of the receptor”. Also, the “amount of GHR on the surface of the cells” value in experiment [1] is reported as “dose dependent reduction”.

(Values after patent publication US20060188945A1, “Screening methods” (priority 2004, published 2006).)
